Measured values taken from ChEMBL document CHEMBL4138158, “2-Arylbenzofurans from Artocarpus lakoocha and methyl ether analogs with potent cholinesterase inhibitory activity” (Eur J Med Chem, 2018).
pIC50: −log10 of the molar value. Activity calls are given as the source filed them. The calls are words filed in the database; no cut-off is given here.

Legend:
Acetylcholinesterase = Acetylcholinesterase (Electrophorus electricus, UniProt O42275); assay: Inhibition of electric eel AChE using acetylthiocholine as substrate preincubated for 15 mins followed by substrate addition measured after 5 mins by Ellman's method
Cholinesterase [1] = biological target: T1, Cholinesterase (Homo sapiens, UniProt P06276); assay: Inhibition of BChE (unknown origin) using thiocholine as substrate preincubated for 15 mins followed by substrate addition measured after 5 mins by Ellman's method
[2] = biological target: Acetylcholinesterase (Electrophorus electricus) (UniProt O42275); assay: Potency index, ratio of galantamine IC50 to compound IC50 for inhibition of electric eel AChE
[3] = Selectivity ratio of IC50 for BChE (unknown origin) to IC50 for electric eel AChE
[4] = biological target: Acetylcholinesterase (Electrophorus electricus) (UniProt O42275); assay: Inhibition of electric eel AChE at 0.1 mg/ml using acetylthiocholine as substrate preincubated for 15 mins followed by substrate addition measured after 5 mins by Ellman's method
Cholinesterase [5] = biological target: T1, Cholinesterase; assay: Inhibition of BChE (unknown origin) at 0.1 mg/ml using thiocholine as substrate preincubated for 15 mins followed by substrate addition measured after 5 mins by Ellman's method
Cholinesterase [6] = biological target: T1, Cholinesterase; assay: Potency index, ratio of galantamine IC50 to compound IC50 for inhibition of BChE (unknown origin)

Sequence of Acetylcholinesterase (O42275 whole entry): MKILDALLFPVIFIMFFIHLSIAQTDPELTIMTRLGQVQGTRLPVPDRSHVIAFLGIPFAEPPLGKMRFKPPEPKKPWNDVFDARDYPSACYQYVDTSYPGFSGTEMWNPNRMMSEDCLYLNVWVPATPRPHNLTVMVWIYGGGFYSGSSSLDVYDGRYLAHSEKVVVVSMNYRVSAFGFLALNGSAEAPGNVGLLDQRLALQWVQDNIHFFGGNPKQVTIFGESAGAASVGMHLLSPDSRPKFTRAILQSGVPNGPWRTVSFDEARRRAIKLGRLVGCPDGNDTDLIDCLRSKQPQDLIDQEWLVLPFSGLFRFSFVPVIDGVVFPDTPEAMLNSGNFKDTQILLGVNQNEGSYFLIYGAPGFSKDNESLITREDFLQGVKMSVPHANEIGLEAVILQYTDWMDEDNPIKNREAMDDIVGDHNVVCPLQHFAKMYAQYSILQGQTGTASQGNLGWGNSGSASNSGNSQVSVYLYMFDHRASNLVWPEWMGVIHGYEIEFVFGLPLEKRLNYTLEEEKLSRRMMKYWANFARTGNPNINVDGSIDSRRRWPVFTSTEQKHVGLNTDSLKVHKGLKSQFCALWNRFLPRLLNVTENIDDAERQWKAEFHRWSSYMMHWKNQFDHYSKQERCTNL
Sequence of Acetylcholinesterase (Electrophorus electricus) (O42275 24-633 limits assumed): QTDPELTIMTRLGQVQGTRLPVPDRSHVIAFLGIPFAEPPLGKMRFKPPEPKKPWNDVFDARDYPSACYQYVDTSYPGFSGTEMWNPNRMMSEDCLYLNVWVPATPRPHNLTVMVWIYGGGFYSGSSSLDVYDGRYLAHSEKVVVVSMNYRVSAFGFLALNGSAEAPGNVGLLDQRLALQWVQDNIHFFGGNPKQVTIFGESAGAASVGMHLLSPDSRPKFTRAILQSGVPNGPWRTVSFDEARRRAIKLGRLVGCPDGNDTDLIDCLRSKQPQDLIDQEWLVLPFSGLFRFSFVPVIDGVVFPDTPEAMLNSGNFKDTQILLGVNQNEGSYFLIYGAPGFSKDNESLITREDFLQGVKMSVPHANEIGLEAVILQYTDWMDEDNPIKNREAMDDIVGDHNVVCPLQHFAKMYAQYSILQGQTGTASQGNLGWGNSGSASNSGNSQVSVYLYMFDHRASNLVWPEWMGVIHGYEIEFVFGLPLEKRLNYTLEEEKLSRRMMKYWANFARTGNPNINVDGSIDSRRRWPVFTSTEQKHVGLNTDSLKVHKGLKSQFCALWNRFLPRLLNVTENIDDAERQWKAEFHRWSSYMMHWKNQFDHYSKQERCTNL
T1 sequence (P06276 whole entry): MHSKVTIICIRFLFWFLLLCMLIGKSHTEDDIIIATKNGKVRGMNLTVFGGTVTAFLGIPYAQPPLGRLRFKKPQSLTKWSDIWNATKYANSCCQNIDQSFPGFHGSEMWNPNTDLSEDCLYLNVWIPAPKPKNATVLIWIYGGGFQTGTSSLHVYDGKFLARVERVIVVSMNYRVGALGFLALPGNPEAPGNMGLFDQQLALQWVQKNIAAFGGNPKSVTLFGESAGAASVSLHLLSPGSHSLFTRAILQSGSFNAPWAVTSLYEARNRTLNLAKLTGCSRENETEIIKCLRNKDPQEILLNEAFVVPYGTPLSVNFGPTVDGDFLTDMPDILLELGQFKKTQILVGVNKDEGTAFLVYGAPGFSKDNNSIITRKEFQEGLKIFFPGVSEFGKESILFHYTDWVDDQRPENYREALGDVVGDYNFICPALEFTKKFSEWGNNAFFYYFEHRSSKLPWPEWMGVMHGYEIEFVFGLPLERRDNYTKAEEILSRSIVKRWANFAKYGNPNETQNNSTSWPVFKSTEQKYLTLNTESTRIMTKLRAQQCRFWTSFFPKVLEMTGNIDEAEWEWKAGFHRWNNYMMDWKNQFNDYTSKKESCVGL

## CC(C)=CCCC1(C)C=Cc2c(O)cc(-c3cc4ccc(O)cc4o3)c(CC=C(C)C)c2O1 (centres undefined)
Acetylcholinesterase
  pIC50: 6.06
Cholinesterase [1]
  pIC50: 4.83
[2]
  Ratio IC50: 2
[3]
  Ratio IC50: 17.2

## COc1cc(OC)c(C/C=C(\C)CCC=C(C)C)c(-c2cc3ccc(O)cc3o2)c1CC=C(C)C
[4]
  inhibition: inactive
Cholinesterase [5]
  inhibition: inactive

## CC(C)=CCC/C(C)=C/Cc1c(O)cc(O)c(CC=C(C)C)c1-c1cc2ccc(O)cc2o1 [LAKOOCHIN B]
Acetylcholinesterase
  pIC50: 5.97
Cholinesterase [6]
  Ratio IC50: 37
Cholinesterase [1]
  pIC50: 7.00
[2]
  Ratio IC50: 2
[3]
  Ratio IC50: 0.09

## COc1cc(O)c(C/C=C(\C)CCC=C(C)C)c(-c2cc3ccc(O)cc3o2)c1CC=C(C)C
[4]
  inhibition: inactive
Cholinesterase [6]
  Ratio IC50: < 10
Cholinesterase [1]
  pIC50: 6.29

## COc1cc(O)c(CC=C(C)C)c(-c2cc3ccc(O)cc3o2)c1C/C=C(\C)CCC=C(C)C
[4]
  inhibition: inactive
Cholinesterase [6]
  Ratio IC50: < 10
Cholinesterase [1]
  pIC50: 6.20

## COc1ccc2cc(-c3cc(OC)c4c(c3CC=C(C)C)OC(C)(CCC=C(C)C)C=C4)oc2c1 (centres undefined)
[4]
  inhibition: inactive
Cholinesterase [5]
  inhibition: inactive

## COc1cc(-c2cc3ccc(O)cc3o2)c(CC=C(C)C)c2c1C=CC(C)(CCC=C(C)C)O2 (centres undefined)
[4]
  inhibition: inactive
Cholinesterase [6]
  Ratio IC50: < 10
Cholinesterase [1]
  pIC50: 6.51

## Oc1cc(O)c2c(c1)O[C@H](c1ccc(O)c(O)c1)[C@@H](O)C2
[4]
  inhibition: inactive
Cholinesterase [5]
  inhibition: inactive

## Oc1cc(O)cc(/C=C/c2ccc(O)cc2O)c1 [OXYRESVERATROL]
[4]
  inhibition: inactive
Cholinesterase [1]
  pIC50: 5.53

## COc1cc(O)c(CC=C(C)C)c(-c2cc3ccc(O)c(C/C=C(\C)CCC=C(C)C)c3o2)c1
Acetylcholinesterase
  pIC50: 4.21
Cholinesterase [1]
  pIC50: 4.33
[3]
  Ratio IC50: 0.76

## CC(C)=CCCC1(C)C=Cc2c(O)cc(-c3cc4c(O)cc(O)cc4o3)c(CC=C(C)C)c2O1 (centres undefined)
Acetylcholinesterase
  pIC50: 5.96
Cholinesterase [1]
  pIC50: 5.05
[2]
  Ratio IC50: 2
[3]
  Ratio IC50: 8.05

## COc1ccc2cc(-c3c(CC=C(C)C)c(O)cc(O)c3C/C=C(\C)CCC=C(C)C)oc2c1
[4]
  inhibition: inactive
Cholinesterase [6]
  Ratio IC50: < 10
Cholinesterase [1]
  pIC50: 6.00

## CC(C)=CCc1c(-c2cc3ccc(O)cc3o2)cc2c3c1O[C@@]1(C)CCC([C@@H]3C1)C(C)(C)O2 (some centres undefined)
[4]
  inhibition: inactive
Cholinesterase [1]
  pIC50: 5.81

## COc1cc(OC)c(CC=C(C)C)c(-c2cc3ccc(O)cc3o2)c1CC=C(C)C [LAKOOCHIN A]
Acetylcholinesterase
  pIC50: 4.56
Cholinesterase [1]
  pIC50: 4.86
[3]
  Ratio IC50: 0.5

## COc1ccc2cc(-c3cc(O)c4c(c3CC=C(C)C)OC(C)(CCC=C(C)C)C=C4)oc2c1 (centres undefined)
[4]
  inhibition: inactive
Cholinesterase [6]
  Ratio IC50: < 10
Cholinesterase [1]
  pIC50: 5.95
